# Assay results: patent publication US20180344680A1, “COMPOSITIONS AND METHODS FOR TREATMENT, AMELIORATION, AND PREVENTION OF DIABETES-RELATED SKIN ULCERS” (THE ARIZONA BOARD OF REGENTS ON BEHALF OF THE UNIVERSITY OF …, priority 2015, published 2018)
# How the values were obtained:
# [1] = system: Ki67; assay: Ki67 immunofluorescence in HaCaT cells; format: cell-based, human; conditions: HG HaCaT cells; 5 μmol/L SF or 20 μmol/L CA
# Protocol: Human immortalized keratinocytes HaCaT were obtained from the Arizona Cancer Center (see, e.g., Boukamp P, et al., J Cell Biol 106:761-771, 1988). Cells were grown in Dulbecco's modified Eagle's medium (DMEM) containing low glucose (LG, 5.5 mmol/L) and 10% fetal bovine serum (FBS) in an incubator at 37° C. with 5% CO2. For the experiments, the cells were starved in serum-free LG DMEM for 24 h, then either maintained in LG DMEM or switched to high glucose (HG, 25 mmol/L) DMEM for 2 days (see, e.g., Zheng H, et al., Diabetes 60:3055-3066, 2011; Lan C C, et al., Br J Dermatol 159:1103-1115, 2008). For the treatments, the cells were dosed with 5 μmol/L SF or 20 μmol/L CA.
# siRNA transfections. […]
# Reactive oxygen species (ROS) measurement, cell proliferation and apoptosis. ROS were measured in HaCaT cells using DCF. […] Then, 48 h later, the cells were switched into fresh medium containing 10 μg/mL DCF, incubated 30 min, and fluorescence intensity was measured by flow cytometry. The rate of cell proliferation was measured by two methods (see, e.g., Ren D, et al., Proc Natl Acad Sci USA 108:1433-1438, 2011): 1) detection of Ki67 using indirect immunofluorescence as described previously (see, e.g., Lau A, et al., Mol Cell Biol 30:3275-3285, 2010); and 2) using the xCELLigence system (Roche). […]
# [2] = system: wounds of STZ-induced diabetic Nrf2+/+ mice; assay: Wound closure in STZ-induced diabetic mouse model; format: in vivo; conditions: for wound closure / diameter of granulation tissue between the flanking hair follicles: STZ mice; for wound closure: 12.5 mg/kg SF or 50 mg/kg CA i.p. every other day, up to 14 days after wound surgery, vs untreated STZ; for diameter of granulation tissue between the flanking hair follicles: day 14 post-surgery, histological examination
# From the text: Diabetes mouse model and treatments. Nrf2^+/+ and Nrf2^-/- C57BL/6 mice were described previously (see, e.g., Jiang T, et al., Diabetes 59:850-860, 2010) and were housed and handled in accordance with the University of Arizona Institutional Animal Care policies. The STZ-induced diabetic model was previously described (see, e.g., Zheng H, et al., Diabetes 60:3055-3066, 2011) and only 8 week old male mice were included in this study. Briefly, three weeks after STZ injections, fasting glucose levels (FGL, 4 h fast) were measured using the AlphaTRAK system (Abbott Laboratory, North Chicago, Ill.) and mice with a FGL higher than or equal to 250 mg/dL were considered diabetic and included in the study (see, e.g., FIG. 2A and FIG. 3A for a detailed timeline). The mice (n=5-8) were then allocated randomly to each of the indicated treatment groups and received corn oil (control), 12.5 mg/kg SF or 50 mg/kg CA intraperitoneally every two days until skin tissues were harvested. One week after the treatments, the mice were anesthetized, their backs were shaved and cleaned. Two wounds were made with a sterile 6 mm skin biopsy punch (Health link, Jacksonville, Fla.) and covered with 3M Tegaderm pads. The wounds were photographed using an in vivo imaging system and an infrared integrated system ([…], Northampton, UK) for 14 days. Gross wound closure was quantified by ImageJ software, and wound healing was expressed as the percentage of the original wound area that had healed. The tissues were collected using an 8 mm skin biopsy punch; one half was fixed in 10% buffered formalin and embedded in paraffin while the other half was used for protein extraction. For the experiments in non-diabetic mice (FIG. 9), mice were injected with sodium citrate buffer and randomly allocated to the treatment groups (n=3-5). Wounds and tissue collection were performed as described above.
Structure (SMILES),Ki67 expression [1],wound closure [2],diameter of granulation tissue between the flanking hair follicles [2],"wound closure compared with non-diabetic Con mice ([2]; STZ+SF mice, during the first 7 days)"
"O=CC=Cc1ccccc1 [CA, Cinnamaldehyde]",could restore some of the Ki67 expression,accelerated wound closure,markedly reduced,
"C[S@@+]([O-])CCCCN=C=S [SF, L-sulforaphane]",could restore some of the Ki67 expression,accelerated wound closure,markedly reduced,even faster than that of the Con mice
